Where “and” joins values, the source holds several entries; their conditions need not be identical. Equal entries are not always repeated.
Assays:
Assay in all cases: Affinity-purification and mass spectrometry (AP-MS) chemical proteomics, all proteins;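 for Difference: 200 µM free competitor with 20 µM biotin probe overnight in lysate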
Format in all cases: binding
[1] = molecular target: T1, proteins displaced from immobilized biotin-Cmpd 1 pulldowns (U2OS cell lysate) (Homo sapiens, UniProt O14979); details: GN=HNRNPDL (A0A087WU03)
T1 construct: endogenous in cells; host or cells: U2OS
Procedure: (§1) The samples for AP-MS were prepared following pulldown procedure as previously described with minor modifications. Briefly, U2OS cells were lysed in RIPA buffer and the cell lysate was equally divided into two groups: (1) DMSO group (control group): the cell lysate was incubated with 20 μM biotin-labeled compound 1; (2) Cpmd 1 group (sample group): the cell lysate was incubated with 20 μM biotin-labeled compound 1 and 200 μM free compound 1. Each group contains three biological replicates. They were incubated overnight at 4 °C, then 30 μL streptavidin beads (Thermo Fisher, 20353) was added and incubated at 4 °C for 1 h. The beads were then washed with RIPA buffer for 3 times, 10 min/time.
(§2) Beads were rinsed twice with 50 mM TEAB, pH 7.55, before eluting proteins with 25 μL of 5% SDS, 50 mM TEAB, pH 7.55. The sample was then centrifuged at 17,000 × g for 10 min to remove any debris. Proteins were reduced with 20 mM TCEP (Thermo Fisher, 77720) and incubated at 65 °C for 30 min. The sample was cooled to room temperature and 1 μL of 0.5 M iodoacetamide acid was added and allowed to react for 20 min in dark. Phosphoric acid (12%, 2.75 μL) was added to the protein solution, followed by adding 165 μL of binding buffer (90% methanol, 100 mM TEAB, pH 7.1). The resulting solution was added to S-Trap spin column (protifi.com) and passed through the column using a bench top centrifuge (30 s spin at 4000 × g). The spin column was washed with 400 μL of binding buffer and centrifuged. This step was repeated two more times. Then trypsin was added to the protein mixture at a mass ratio of 1:25 in 50 mM TEAB, pH 8.0, and the sample was incubated at 37 °C for 4 h. Peptides were eluted with 80 μL of 50 mM TEAB, followed by 80 μL of 0.2% formic acid, and finally 80 μL of 50% acetonitrile, 0.2% formic acid. The combined peptide solution was then dried in a speed vac and resuspended in 2% acetonitrile, 0.1% formic acid, 97.9% water and placed in an autosampler vial.
(§3) Samples were analyzed by nanoLC-MS/MS (nanoRSLC, Thermo Fisher) using an Aurora series (Ion Opticks) reversed phase HPLC column (25 cm length × 75 µm inner diameter) and directly injected to an Orbitrap Eclipse (Thermo Fisher) using a 120 min gradient (mobile phase A = 0.1% formic acid, mobile phase B = 99.9% acetonitrile with 0.1% formic acid; hold 2% B for 5 min, 2–6% B in 0.1 min, 6–25% in 100 min, 25–50% in 15 min) at a flow rate of 350 nL/min. Eluted peptide ions were analyzed using a data-dependent acquisition (DDA) method with resolution settings of 120,000 and 15,000 (at m/z 200) for MS1 and MS2 scans, respectively. DDA-selected peptides were fragmented using stepped high energy collisional dissociation (27, 32, and 37%).
(§4) The data of AP-MS were analyzed as a previously described method with minor modifications. Briefly, the raw MS files were searched with MaxQuant software (version 1.6.1.1, www.maxquant.org)[56] against the UniProt human protein database (www.uniprot.org) concatenated with common contaminants and the decoy database. The mass tolerance for precursor ions was set to 20 ppm and 4.5 ppm for the first and main search, respectively. The cysteine carbamidomethylation was set as fixed modification and methionine oxidation and N-terminal acetylation as variable modifications. Enzyme specificity was set to trypsin and a maximum missed cleavage was set as 2. The 1% false discovery rate (FDR) at both peptide and protein levels was applied for the analysis. Relative protein quantification was based on the label-free quantification incorporated in the MaxQuant software. The iBAQ intensity of proteins was obtained for the control and experimental samples. The missing iBAQ intensity was replaced by a random number, which was calculated from a normal distribution with a width of 0.3 and a downshift of 1.8 defined by Perseus software (version 1.6.5.0). The P-value was calculated by performing two-sample Student’s t-test. […]

[2] = molecular target: T2, proteins displaced from immobilized biotin-Cmpd 1 pulldowns (U2OS cell lysate) (Homo sapiens, UniProt Q13200); details: GN=PSMD2 (Q13200)
T2 construct: endogenous in cells; host or cells: U2OS
Procedure: as §1, §2, §3, §4

[3] = molecular target: T3, proteins displaced from immobilized biotin-Cmpd 1 pulldowns (U2OS cell lysate) (Homo sapiens, UniProt P06748); details: GN=NPM1 (P06748)
T3 construct: endogenous in cells; host or cells: U2OS
Procedure: as §1, §2, §3, §4

[4] = molecular target: T4, proteins displaced from immobilized biotin-Cmpd 1 pulldowns (U2OS cell lysate) (Homo sapiens, UniProt Q9BUF5); details: GN=TUBB6 (Q9BUF5)
T4 construct: endogenous in cells; host or cells: U2OS
Procedure: as §1, §2, §3, §4

[5] = molecular target: T5, proteins displaced from immobilized biotin-Cmpd 1 pulldowns (U2OS cell lysate) (Homo sapiens, UniProt Q96HE9); details: GN=PRR11 (Q96HE9)
T5 construct: endogenous in cells; host or cells: U2OS
Procedure: as §1, §2, §3, §4

[6] = molecular target: T6, proteins displaced from immobilized biotin-Cmpd 1 pulldowns (U2OS cell lysate) (Homo sapiens, UniProt P28370); details: GN=SMARCA1 (P28370)
T6 construct: endogenous in cells; host or cells: U2OS
Procedure: as §1, §2, §3, §4

[7] = molecular target: T7, proteins displaced from immobilized biotin-Cmpd 1 pulldowns (U2OS cell lysate) (Homo sapiens, UniProt P27797); details: GN=CALR (P27797)
T7 construct: endogenous in cells; host or cells: U2OS
Procedure: as §1, §2, §3, §4

[8] = molecular target: T8, proteins displaced from immobilized biotin-Cmpd 1 pulldowns (U2OS cell lysate) (Homo sapiens, UniProt P38646); details: GN=HSPA9 (P38646)
T8 construct: endogenous in cells; host or cells: U2OS
Procedure: as §1, §2, §3, §4

[9] = molecular target: T9, proteins displaced from immobilized biotin-Cmpd 1 pulldowns (U2OS cell lysate) (Homo sapiens, UniProt P46783); details: GN=RPS10 (P46783)
T9 construct: endogenous in cells; host or cells: U2OS
Procedure: as §1, §2, §3, §4

[10] = molecular target: T10, proteins displaced from immobilized biotin-Cmpd 1 pulldowns (U2OS cell lysate) (Homo sapiens, UniProt Q9BZG1); details: GN=RAB34 (Q9BZG1)
T10 construct: endogenous in cells; host or cells: U2OS
Procedure: as §1, §2, §3, §4

T8 sequence (P38646 47-679): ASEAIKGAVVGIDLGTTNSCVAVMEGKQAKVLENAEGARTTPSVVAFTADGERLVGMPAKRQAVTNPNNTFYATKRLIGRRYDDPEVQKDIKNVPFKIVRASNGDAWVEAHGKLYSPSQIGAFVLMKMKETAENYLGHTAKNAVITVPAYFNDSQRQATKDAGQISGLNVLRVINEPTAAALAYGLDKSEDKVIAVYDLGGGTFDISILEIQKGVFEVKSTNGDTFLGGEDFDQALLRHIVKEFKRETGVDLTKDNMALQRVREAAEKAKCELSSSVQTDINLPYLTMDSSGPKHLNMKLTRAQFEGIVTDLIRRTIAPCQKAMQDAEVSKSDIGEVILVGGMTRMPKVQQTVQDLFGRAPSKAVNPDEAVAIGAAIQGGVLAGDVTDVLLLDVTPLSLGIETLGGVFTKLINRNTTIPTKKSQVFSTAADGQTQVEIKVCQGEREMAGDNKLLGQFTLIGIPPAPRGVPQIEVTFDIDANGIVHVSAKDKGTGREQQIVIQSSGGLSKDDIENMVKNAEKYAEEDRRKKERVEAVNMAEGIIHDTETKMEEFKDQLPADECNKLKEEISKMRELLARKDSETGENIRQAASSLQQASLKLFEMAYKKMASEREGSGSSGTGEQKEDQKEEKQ
T4 sequence (Q9BUF5 whole entry): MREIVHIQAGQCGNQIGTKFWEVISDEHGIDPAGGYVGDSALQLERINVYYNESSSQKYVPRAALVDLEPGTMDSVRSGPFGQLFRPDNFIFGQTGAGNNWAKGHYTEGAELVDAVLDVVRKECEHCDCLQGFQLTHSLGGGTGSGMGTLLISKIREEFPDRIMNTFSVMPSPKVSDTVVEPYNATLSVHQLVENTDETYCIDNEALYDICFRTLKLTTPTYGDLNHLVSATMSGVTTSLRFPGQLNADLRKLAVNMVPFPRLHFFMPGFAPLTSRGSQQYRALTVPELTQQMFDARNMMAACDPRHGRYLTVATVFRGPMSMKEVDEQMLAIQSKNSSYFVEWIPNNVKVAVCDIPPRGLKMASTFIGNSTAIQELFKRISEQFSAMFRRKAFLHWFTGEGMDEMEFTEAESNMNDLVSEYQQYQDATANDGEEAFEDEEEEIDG
T7 sequence (P27797 18-417): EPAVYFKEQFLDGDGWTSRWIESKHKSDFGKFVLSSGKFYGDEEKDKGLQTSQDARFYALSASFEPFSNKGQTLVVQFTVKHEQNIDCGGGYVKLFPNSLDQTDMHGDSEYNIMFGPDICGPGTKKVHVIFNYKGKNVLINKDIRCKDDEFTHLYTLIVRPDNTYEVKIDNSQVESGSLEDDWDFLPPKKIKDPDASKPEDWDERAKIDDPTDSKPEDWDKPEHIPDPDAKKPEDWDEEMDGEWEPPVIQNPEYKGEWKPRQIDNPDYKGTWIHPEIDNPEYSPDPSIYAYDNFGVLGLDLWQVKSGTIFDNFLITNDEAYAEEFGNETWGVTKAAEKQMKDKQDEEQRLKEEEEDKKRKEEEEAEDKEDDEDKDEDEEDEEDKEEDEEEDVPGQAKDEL
T2 sequence (Q13200 whole entry): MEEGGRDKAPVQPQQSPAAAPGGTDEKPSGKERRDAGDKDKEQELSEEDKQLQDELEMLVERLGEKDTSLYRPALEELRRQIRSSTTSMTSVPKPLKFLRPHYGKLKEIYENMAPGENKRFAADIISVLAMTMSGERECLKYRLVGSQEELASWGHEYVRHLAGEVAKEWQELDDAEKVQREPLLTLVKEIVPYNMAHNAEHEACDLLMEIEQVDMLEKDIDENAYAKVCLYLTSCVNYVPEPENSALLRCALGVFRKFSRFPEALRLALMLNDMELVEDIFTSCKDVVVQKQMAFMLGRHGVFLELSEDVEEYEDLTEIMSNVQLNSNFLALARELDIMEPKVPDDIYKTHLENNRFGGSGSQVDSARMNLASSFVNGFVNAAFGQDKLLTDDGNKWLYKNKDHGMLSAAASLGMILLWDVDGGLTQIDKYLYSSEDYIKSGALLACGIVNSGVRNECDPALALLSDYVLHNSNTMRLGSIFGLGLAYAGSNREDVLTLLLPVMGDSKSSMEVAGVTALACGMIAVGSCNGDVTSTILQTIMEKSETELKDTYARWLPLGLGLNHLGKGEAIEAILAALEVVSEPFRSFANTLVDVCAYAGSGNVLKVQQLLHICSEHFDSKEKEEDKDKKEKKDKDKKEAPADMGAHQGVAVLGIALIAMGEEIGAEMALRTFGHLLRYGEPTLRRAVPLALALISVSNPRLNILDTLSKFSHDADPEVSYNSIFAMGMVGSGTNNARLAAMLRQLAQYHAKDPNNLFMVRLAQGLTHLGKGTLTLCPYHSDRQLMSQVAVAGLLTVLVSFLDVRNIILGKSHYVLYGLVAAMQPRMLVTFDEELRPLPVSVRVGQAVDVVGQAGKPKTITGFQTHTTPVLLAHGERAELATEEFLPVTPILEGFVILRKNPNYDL
T10 sequence (Q9BZG1 whole entry): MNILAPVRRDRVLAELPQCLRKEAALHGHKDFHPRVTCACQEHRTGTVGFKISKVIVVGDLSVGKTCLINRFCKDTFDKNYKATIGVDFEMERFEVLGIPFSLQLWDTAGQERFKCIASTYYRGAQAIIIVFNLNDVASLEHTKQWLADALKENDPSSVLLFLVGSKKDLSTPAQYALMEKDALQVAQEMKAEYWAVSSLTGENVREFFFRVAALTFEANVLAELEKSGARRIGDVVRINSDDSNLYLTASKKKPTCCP
T5 sequence (Q96HE9 whole entry): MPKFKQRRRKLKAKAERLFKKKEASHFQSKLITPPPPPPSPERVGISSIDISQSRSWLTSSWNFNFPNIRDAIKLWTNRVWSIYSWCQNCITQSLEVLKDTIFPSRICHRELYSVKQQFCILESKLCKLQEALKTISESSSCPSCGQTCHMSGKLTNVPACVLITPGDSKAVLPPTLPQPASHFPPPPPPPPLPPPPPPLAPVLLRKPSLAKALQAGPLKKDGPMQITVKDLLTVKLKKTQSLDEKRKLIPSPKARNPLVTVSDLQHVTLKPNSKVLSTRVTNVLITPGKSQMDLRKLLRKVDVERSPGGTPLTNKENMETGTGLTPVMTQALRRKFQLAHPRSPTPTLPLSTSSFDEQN
T1 sequence (O14979 whole entry): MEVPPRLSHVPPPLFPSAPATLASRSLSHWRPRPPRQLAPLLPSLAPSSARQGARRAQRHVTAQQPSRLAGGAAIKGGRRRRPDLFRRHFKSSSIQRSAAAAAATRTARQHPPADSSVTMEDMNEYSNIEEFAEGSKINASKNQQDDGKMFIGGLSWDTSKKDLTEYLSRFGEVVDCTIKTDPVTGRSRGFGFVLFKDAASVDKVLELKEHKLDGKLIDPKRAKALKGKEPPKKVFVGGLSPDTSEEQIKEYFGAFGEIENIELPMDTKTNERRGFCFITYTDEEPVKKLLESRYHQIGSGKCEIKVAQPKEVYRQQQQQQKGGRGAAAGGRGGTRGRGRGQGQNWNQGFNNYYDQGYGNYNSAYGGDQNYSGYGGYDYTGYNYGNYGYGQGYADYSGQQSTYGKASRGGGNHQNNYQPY
T3 sequence (P06748 whole entry): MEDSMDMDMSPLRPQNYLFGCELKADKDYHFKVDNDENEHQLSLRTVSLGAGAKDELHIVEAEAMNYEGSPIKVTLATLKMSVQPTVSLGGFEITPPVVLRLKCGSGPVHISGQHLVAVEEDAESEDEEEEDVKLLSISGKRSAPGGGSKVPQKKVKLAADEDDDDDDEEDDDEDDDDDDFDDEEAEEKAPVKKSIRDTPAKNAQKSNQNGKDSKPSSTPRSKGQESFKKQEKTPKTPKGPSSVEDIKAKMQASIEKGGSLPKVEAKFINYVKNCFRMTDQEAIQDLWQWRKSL
T6 sequence (P28370 whole entry): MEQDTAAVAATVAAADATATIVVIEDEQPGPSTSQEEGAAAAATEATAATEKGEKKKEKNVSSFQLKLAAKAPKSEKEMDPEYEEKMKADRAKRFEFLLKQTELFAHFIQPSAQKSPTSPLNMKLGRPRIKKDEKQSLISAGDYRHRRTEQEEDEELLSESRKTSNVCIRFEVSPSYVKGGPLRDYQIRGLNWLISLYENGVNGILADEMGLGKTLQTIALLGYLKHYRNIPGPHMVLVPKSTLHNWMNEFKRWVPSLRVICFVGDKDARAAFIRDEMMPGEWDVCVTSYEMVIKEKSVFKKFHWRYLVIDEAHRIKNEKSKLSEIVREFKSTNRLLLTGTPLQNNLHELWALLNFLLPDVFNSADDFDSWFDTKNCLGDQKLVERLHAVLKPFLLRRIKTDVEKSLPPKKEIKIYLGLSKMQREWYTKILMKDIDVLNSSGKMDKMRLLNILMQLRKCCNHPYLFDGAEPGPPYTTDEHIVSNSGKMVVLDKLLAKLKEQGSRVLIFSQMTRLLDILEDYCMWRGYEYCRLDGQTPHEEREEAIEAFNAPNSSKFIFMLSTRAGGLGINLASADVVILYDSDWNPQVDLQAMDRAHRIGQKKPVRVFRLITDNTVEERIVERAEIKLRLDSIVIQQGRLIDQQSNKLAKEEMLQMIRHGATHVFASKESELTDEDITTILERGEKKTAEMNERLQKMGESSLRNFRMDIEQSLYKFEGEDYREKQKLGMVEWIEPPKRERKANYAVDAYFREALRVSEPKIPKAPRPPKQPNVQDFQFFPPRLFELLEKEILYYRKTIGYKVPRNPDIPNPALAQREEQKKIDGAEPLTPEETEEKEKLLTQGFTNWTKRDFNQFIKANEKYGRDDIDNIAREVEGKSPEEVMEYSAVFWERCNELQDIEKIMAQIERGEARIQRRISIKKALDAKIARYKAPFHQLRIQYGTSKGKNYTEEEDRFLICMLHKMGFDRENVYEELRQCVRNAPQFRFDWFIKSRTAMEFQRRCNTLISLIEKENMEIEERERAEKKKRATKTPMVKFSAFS

SMILES: Cn1c2c(c(=N)c3c1CCC3)CCC2 [Compound 1, 4-methyl-2,3,4,5,6,7-hexahydrodicyclopenta[b,e]pyridin-8(1H)-imine]
- Difference ([1]; Cmpd minus DMSO, -LOG(P-value) 0.798528): 1.553
- iBAQ Cmpd ([1]; replicates 1-3): 20.8595 and 22.7108 and 22.2667
- Difference ([2]; Cmpd minus DMSO, -LOG(P-value) 1.86828): -0.9512
- iBAQ Cmpd ([2]; replicates 1-3): 17.2697 and 17.2993 and 16.9257
- Difference ([3]; Cmpd minus DMSO, -LOG(P-value) 0.76043): -0.4033
- iBAQ Cmpd ([3]; replicates 1-3): 27.3171 and 27.18 and 26.7127
- Difference ([4]; Cmpd minus DMSO, -LOG(P-value) 2.60513): 3.82
- iBAQ Cmpd ([4]; replicates 1-3): 19.1705 and 17.8309 and 17.4529
- Difference ([5]; Cmpd minus DMSO, -LOG(P-value) 0.979867): 2.154
- iBAQ Cmpd ([5]; replicates 1-3): 17.2458 and 16.9213 and 18.1218
- Difference ([6]; Cmpd minus DMSO, -LOG(P-value) 1.24318): 1.73
- iBAQ Cmpd ([6]; replicates 1-3): 17.0232 and 15.8844 and 17.1364
- Difference ([7]; Cmpd minus DMSO, -LOG(P-value) 1.31392): 3.089
- iBAQ Cmpd ([7]; replicates 1-3): 19.5486 and 19.2952 and 16.8093
- Difference ([8]; Cmpd minus DMSO, -LOG(P-value) 0.718324): 0.7463
- iBAQ Cmpd ([8]; replicates 1-3): 19.8777 and 19.6433 and 19.5335
- Difference ([9]; Cmpd minus DMSO, -LOG(P-value) 0.711634): 0.8419
- iBAQ Cmpd ([9]; replicates 1-3): 20.3934 and 20.6157 and 19.9486
- Difference ([10]; Cmpd minus DMSO, -LOG(P-value) 1.66704): 2.667
- iBAQ Cmpd ([10]; replicates 1-3): 18.8001 and 17.2488 and 16.5904

Source: article PMC9481570, “A small molecule antagonist of SMN disrupts the interaction between SMN and RNAP II” (Nature Communications, 2022)
